{
  "source": "patent US8901337B2",
  "about": "“Metal complexes having dual histone deacetylase inhibitory and DNA-binding activity” (Royal College of Surgeons in Ireland, priority 2009, dated 2014)",
  "key": {"[1]": {"system": "cell line (CH1)", "assay": "MTS in vitro cytotoxicity, CH1", "assay_type": "cell-based", "conditions": "72 hours, Table 1, read-out: IC50 values against CH1", "description": "(§1) All cells were kept in a humidified atmosphere with 5% CO2 at 37° C.; cells from confluent monolayers were removed from flasks by trypsin/EDTA solution and their viability determined by the trypan blue exclusion test.\n(§2) Cell growth was determined by the [3-(4,5-dimethylthiazol-2-yl)-5-(3-carboxymethoxyphenyl)-2-(4-sulfophenyl)-2H-tetrazolium, inner salt, (MTS test, Promega, Southampton, UK), a colorimetric assay based on the ability of the viable cells to reduce a soluble yellow tetrazolium salt to blue formazan. 10,000 ovarian cancer cells or 3,000 fibroblast cells for example were seeded per well onto 96-well plates in 100 μl of the appropriate culture medium. 24 hr after sowing the cells, the media was removed and the cells were treated by adding 100 μl of the compound media solutions at the appropriate concentrations. cis-[Pt(NH3)2(malSAHA−2H)], cisplatin and cis-[Pt(NH3)2(mal)] were prepared freshly in cell culture media. […] The maximum percentage of dmso present in any well was less than 0.1% (v/v). cis-[Pt(NH3)2(malBel—2H)], belinostat and malbelinostat were freshly prepared in dimethyl formamide (DMF) and diluted in culture media prior to the MTS assay. The maximum percentage of DMF present in any well was 0.5% (v/v). A range of concentrations between 1 μM and 100 μM was used.\n(§3) After 72 hr of treatment, 20 μl of the MTS reagent was added to each well and the plates incubated for 2 hr at 37° C. […] The percentages of surviving cells relative to untreated controls were determined."}, "[2]": {"system": "A549 (lung cancer cells)", "assay": "Cellular uptake of Pt (FAAS), A549", "assay_type": "cell-based", "conditions": "10 μM, 72 hours treatment", "description": "(§4) Cellular uptake of Pt compounds was measured in SKBR, SW480, A549, A2780P and CH1 cells. The cells were seeded in 60 mm tissue culture dishes with 10 mL of their respective medium and after overnight incubation, the cells were treated with the Pt complexes for 72 h at 10 μM concentration. The cell monolayers at the end of the incubation with the Pt complexes were washed (twice) with ice-cold phosphate buffered saline (PBS), trypsinized and harvested into cold (4° C.) PBS. Cell suspensions were centrifuged and the pellets were stored in PBS at −80° C. until assayed. Afterward, the pellets were digested by high pressure microwave mineralization and Pt content was determined by flameless atomic absorption spectrophotometry (FAAS). The results of cellular Pt uptake were corrected for adsorption effects. All experiments were made in triplicate.^17"}, "[3]": {"system": "CH1 (cancer cells)", "assay": "Cellular uptake of Pt (FAAS), CH1", "assay_type": "cell-based", "conditions": "10 μM, 72 hours treatment", "description": "as §4"}, "[4]": {"system": "colon cancer cell line (SW480)", "assay": "MTS in vitro cytotoxicity, SW480", "assay_type": "cell-based", "conditions": "72 hours, Table 1, read-out: IC50 values against SW480", "description": "as §1, §2, §3"}, "[5]": {"system": "breast cancer cell line (SKBR)", "assay": "MTS in vitro cytotoxicity, SKBR", "assay_type": "cell-based", "conditions": "72 hours, Table 1, read-out: IC50 values against SKBR", "description": "as §1, §2, §3"}, "[6]": {"system": "SW480 (colon cancer cells)", "assay": "Cellular uptake of Pt (FAAS), SW480", "assay_type": "cell-based", "conditions": "10 μM, 72 hours treatment", "description": "as §4"}, "[7]": {"system": "lung cancer cell line (A549)", "assay": "MTS in vitro cytotoxicity, A549", "assay_type": "cell-based", "conditions": "72 hours, Table 1, read-out: IC50 values against A549", "description": "as §1, §2, §3"}, "[8]": {"system": "A2780 cisR (cisplatin resistant ovarian cancer cells)", "assay": "Cellular uptake of Pt (FAAS), A2780 cisR", "assay_type": "cell-based, human", "conditions": "10 μM, 24 hours treatment"}, "[9]": {"system": "DNA in A2780 cisR cells", "assay": "Pt binding to DNA in cultured cells (ICP-MS), A2780 cisR", "assay_type": "cell-based, human", "conditions": "4 hours of cell treatment", "description": "Pt DNA binding of Pt complexes was measured in SW480 cells (colon cancer) and CH1 cells (lymphoma) or alternatively A2780 P and A2780 cisR cells (sensitive and resistant to cisplatin respectively). The cells were seeded in 60 mm tissue culture dishes with 10 ml of their respective medium. After overnight incubation the medium was removed and replaced with 10 ml of the respective medium containing a platinum complex giving a final concentration of 43 or 40 μM depending on the experiment. The cells were incubated with a given Pt complex for either 2 or 4 h depending on the experiment. The cells were trypsinised and centrifuged. The supernantant was removed and the cells washed twice with 1×PBS and centrifuged. The pellet was re-suspended in DNA buffer to which Proteinase K (20 mg/mL) and 10% SDS were added. After a gentle shake and incubation at 45° C. for two hours, RNAse (100 mg/mL) was added and the cells were incubated at 37° C. overnight. The volume of supernatant was noted and an equal volume of phenol was added.\nThe resulting mixture was shook for 10 min, then centrifuged for 10 min at 10° C. The supernatant was transferred into a new centrifuge tube (15 ml) and the volume was noted. […] The absorbance of the DNA by was measured by UV spectrophotometry at 260 nm and 280 nm and the concentration of DNA calculated. Platinum bound to DNA was determined by ICP-MS."}},
  "data": [
    {"molecule": "[NH2][Pt]1([NH2])[O]C(=O)C(Cc2ccc(NC(=O)CCCCCCC(=O)NO)cc2)C(=O)[O]1", "note": "[cis-[Pt(NH3)2(malSAHA−2H)], cis-[Pt(NH3)2(malSAHA−2H)].3H2O]", "values": [
      {"measurement": "IC50", "setting": "[1]", "result": "3.8 ± 0.5", "unit": "µM"},
      {"measurement": "Uptake of Pt complexes into A549", "setting": "[2]", "result": "6419 ± 619", "unit": "pmol Pt/2 × 10^6 cell"},
      {"measurement": "Uptake of Pt complexes into CH1", "setting": "[3]", "result": "1595 ± 158", "unit": "pmol Pt/2 × 10^6 cell"},
      {"measurement": "IC50", "setting": "[4]", "result": "13.4 ± 3.9", "unit": "µM"},
      {"measurement": "IC50", "setting": "[5]", "result": "9.9 ± 1.8", "unit": "µM"},
      {"measurement": "Uptake of Pt complexes into SW480", "setting": "[6]", "result": "5422 ± 222", "unit": "pmol Pt/2 × 10^6 cell"},
      {"measurement": "IC50", "setting": "[7]", "result": "12.7 ± 1.8", "unit": "µM"}
    ]},
    {"molecule": "N.N.[Cl][Pt][Cl]", "note": "[cisplatin, cis-[Pt^II(NH3)2Cl2], reference compound]", "values": [
      {"measurement": "IC50", "setting": "[1]", "result": "1 ± 0.5", "unit": "µM"},
      {"measurement": "Uptake of Pt complexes into A549", "setting": "[2]", "result": "614.85 ± 94.85", "unit": "pmol Pt/2 × 10^6 cell"},
      {"measurement": "Uptake of Pt complexes into CH1", "setting": "[3]", "result": "145.4 ± 21.8", "unit": "pmol Pt/2 × 10^6 cell"},
      {"measurement": "IC50", "setting": "[4]", "result": "8 ± 0.3", "unit": "µM"},
      {"measurement": "IC50", "setting": "[5]", "result": "7.5 ± 1.2", "unit": "µM"},
      {"measurement": "Uptake of Pt complexes into SW480", "setting": "[6]", "result": "391.95 ± 51.95", "unit": "pmol Pt/2 × 10^6 cell"},
      {"measurement": "IC50", "setting": "[7]", "result": "6.3 ± 0.1", "unit": "µM"},
      {"measurement": "Uptake of Pt complexes into A2780 cisR", "setting": "[8]", "result": "98 ± 11", "unit": "pmol Pt/2 × 10^6 cell"},
      {"measurement": "DNA-bound Pt in A2780 cisR", "setting": "[9]; 40 μM of Pt complexes", "result": "665 · 10^−15 ± 6 moles of Pt/μg of DNA"}
    ]},
    {"molecule": "[NH2][Pt]1([NH2])[O]C(=O)C(Cc2ccc(NS(=O)(=O)c3ccc(/C=C/C(=O)NO)cc3)cc2)C(=O)[O]1", "note": "[cis-[Pt(NH3)2(malBel−2H)], cis-[Pt(NH3)2(malBel−2H)].1.5H2O]", "values": [
      {"measurement": "Uptake of Pt complexes into A2780 cisR", "setting": "[8]", "result": "42.3 ± 5.3", "unit": "pmol Pt/2 × 10^6 cell"},
      {"measurement": "DNA binding in A2780 cisR compared with cisplatin (in words)", "setting": "[9]", "result": "binds DNA in A2780 P and A2780 cisR cancer cells and to a greater extent than cisplatin"}
    ]}
  ]
}
